In patent US12071404B2, “Aza (indole)-, benzothiophene-, and benzofuran-3-sulfonamides” (UCB Pharma GmbH, priority 2016, dated 2024):

Assays:
GPR17 [1] = biological target: T1, GPR17 (Homo sapiens, UniProt Q13304); assay: Calcium mobilization functional assay (GPR17 Ca2+ assay); assay type: cell-based; parameters: host or cells: Flp-In T-REx CHO; settings: CHO hGPR17 cells, inhibition of 50 nM MDL29,951, Calcium 5 dye, FLIPR; read-out: Ca2+ assay pIC50 (converted)
Summary of the method: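 pIC50 values were fitted with a 4-parameter logistic curve. They reflect test-compound inhibition of cytosolic Ca2+ release evoked by 50 nM MDL29,951, tracked as Calcium 5 fluorescence at room temperature. Cells were CHO Flp-In T-REx stably carrying human GPR17, induced with doxycycline 1 μg/mL for 16-20 h.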

GPR17 [2] = biological target: T1, GPR17; assay: cAMP accumulation functional assay (HTRF, Schild analysis); assay type: cell-based; parameters: host or cells: Flp-In T-REx CHO; settings: CHO hGPR17 cells, Schild analysis vs MDL29,951, 5 μM forskolin, read-out: cAMP assay pA2 (converted)
Summary of the method: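 Antagonist affinity (pA2) came from Schild plots of dose ratios, based on MDL29,951 concentration-response curves fitted by 4-parameter logistic. The read-out was HTRF cAMP in 5,000 doxycycline-induced CHO hGPR17 cells per well, with 30 min compound preincubation and 60 min stimulation, at room temperature in pH 7.4 buffer.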

T1 sequence (Q13304 whole entry): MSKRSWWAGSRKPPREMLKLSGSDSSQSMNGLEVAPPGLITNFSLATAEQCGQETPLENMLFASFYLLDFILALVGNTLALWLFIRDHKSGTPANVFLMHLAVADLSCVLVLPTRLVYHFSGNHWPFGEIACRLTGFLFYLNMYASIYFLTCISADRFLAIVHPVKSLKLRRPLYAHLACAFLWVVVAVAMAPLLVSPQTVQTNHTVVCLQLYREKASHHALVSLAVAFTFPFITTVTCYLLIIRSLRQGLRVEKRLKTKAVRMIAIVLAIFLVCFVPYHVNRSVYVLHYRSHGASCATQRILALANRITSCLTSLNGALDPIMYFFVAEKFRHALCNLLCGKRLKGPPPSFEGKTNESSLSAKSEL

Row | Compound | IC50 (GPR17 [1]) | Kb (GPR17 [2])
1 | N#CCOc1cc(F)c(NS(=O)(=O)c2csc3cc(Cl)ccc23)cc1F [Compound I-313, 6-chloro-N-[4-(cyanomethoxy)-2,5-difluorophenyl]-1-benzothiophene-3-sulfonamide] | 3.16 to 31.6 nM | 3.16 to 31.6 nM
2 | O=S(=O)(Nc1cc(F)c(OC(F)F)cc1F)c1c[nH]c2cc(Cl)ccc12 [Compound I-267, 6-chloro-N-[4-(difluoromethoxy)-2,5-difluorophenyl]-1H-indole-3-sulfonamide] | < 3.16 nM | < 3.16 nM
3 | O=S(=O)(Nc1cc(F)c(F)cc1F)c1c[nH]c2nc(Br)ccc12 [Compound I-95, 6-bromo-N-(2,4,5-trifluorophenyl)-1H-pyrrolo[2,3-b]pyridine-3-sulfonamide] | 3.16 to 31.6 nM | 3.16 to 31.6 nM
4 | O=S(=O)(Nc1cc(F)c(F)cc1F)c1c[nH]c2cc(Cl)ccc12 [Compound I-203, 6-chloro-N-(2,4,5-trifluorophenyl)-1H-indole-3-sulfonamide] | 3.16 to 31.6 nM | < 3.16 nM
5 | O=S(=O)(Nc1cc(F)c(Cl)cc1F)c1c[nH]c2c(F)c(Cl)ccc12 [Compound I-242, 6-chloro-N-(4-chloro-2,5-difluorophenyl)-7-fluoro-1H-indole-3-sulfonamide] | 3.16 to 31.6 nM | < 3.16 nM
6 | CCOCCc1cc(F)c(NS(=O)(=O)c2c[nH]c3cc(Cl)ccc23)nc1F [Compound I-333, 6-chloro-N-[5-(2-ethoxyethyl)-3,6-difluoropyridin-2-yl]-1H-indole-3-sulfonamide] | < 3.16 nM | < 3.16 nM
7 | COc1cc(NS(=O)(=O)c2c[nH]c3cc(Cl)ccc23)c(F)cc1C#N [Compound I-143, 6-chloro-N-(4-cyano-2-fluoro-5-methoxyphenyl)-1H-indole-3-sulfonamide] | < 3.16 nM | < 3.16 nM
8 | O=S(=O)(Nc1ccc(I)cc1F)c1c[nH]c2cc3c(cc12)OCO3 [Compound I-44, N-(2-fluoro-4-iodophenyl)-5H-[1,3]dioxolo[4,5-f]indole-7-sulfonamide] | > 31.6 nM | 3.16 to 31.6 nM
9 | O=[N+]([O-])c1ccc(NS(=O)(=O)c2c[nH]c3cc(Cl)ccc23)cc1 [Compound I-39, 6-chloro-N-(4-nitrophenyl)-1H-indole-3-sulfonamide] | 3.16 to 31.6 nM | > 31.6 nM
10 | CCOC(=O)C1CC1c1cc(F)c(NS(=O)(=O)c2c[nH]c3cc(Cl)ccc23)nc1F (stereo not shown) [Compound I-359, ethyl 2-(6-{[(6-chloro-1H-indol-3-yl)sulfonyl]amino}-2,5-difluoropyridin-3-yl)cyclopropanecarboxylate] | 3.16 to 31.6 nM | 3.16 to 31.6 nM
11 | O=S(=O)(Nc1cccc2nsnc12)c1c[nH]c2ncc(I)cc12 [Compound I-98, N-(2,1,3-benzothiadiazol-4-yl)-5-iodo-1H-pyrrolo[2,3-b]pyridine-3-sulfonamide] | 3.16 to 31.6 nM | 3.16 to 31.6 nM
12 | O=S(=O)(Nc1cccc2c1OC(F)(F)O2)c1c[nH]c2nc(Cl)ccc12 [Compound I-100, 6-chloro-N-(2,2-difluoro-1,3-benzodioxol-4-yl)-1H-pyrrolo[2,3-b]pyridine-3-sulfonamide] | > 31.6 nM | 3.16 to 31.6 nM
13 | O=S(=O)(Nc1cc(F)c(Cl)cc1F)c1c[nH]c2cc(Cl)ccc12 [Compound I-204, 6-chloro-N-(4-chloro-2,5-difluorophenyl)-1H-indole-3-sulfonamide] | 3.16 to 31.6 nM | < 3.16 nM
14 | O=S(=O)(Nc1ccc(OC(F)(F)F)cc1F)c1c[nH]c2cc(Cl)ccc12 [Compound I-276, 6-chloro-N-[2-fluoro-4-(trifluoromethoxy)phenyl]-1H-indole-3-sulfonamide] | 3.16 to 31.6 nM | 3.16 to 31.6 nM
15 | CS(=O)(=O)c1ccc2c(S(=O)(=O)Nc3ccc(Cl)cc3F)c[nH]c2c1 [Compound I-50, N-(4-chloro-2-fluorophenyl)-6-(methylsulfonyl)-1H-indole-3-sulfonamide] | 3.16 to 31.6 nM | 3.16 to 31.6 nM
16 | CC(=O)c1ccc(NS(=O)(=O)c2c[nH]c3cc(Cl)ccc23)c(F)c1 [Compound I-219, N-(4-acetyl-2-fluorophenyl)-6-chloro-1H-indole-3-sulfonamide] | 3.16 to 31.6 nM | 3.16 to 31.6 nM
17 | O=S(=O)(Nc1cc(F)ccc1F)c1c[nH]c2nc(Br)ccc12 [Compound I-88, 6-bromo-N-(2,5-difluorophenyl)-1H-pyrrolo[2,3-b]pyridine-3-sulfonamide] | 3.16 to 31.6 nM | 3.16 to 31.6 nM
18 | O=S(=O)(Nc1cc(F)c(F)cc1F)c1c[nH]c2c1ccc1cccnc12 [Compound I-67, N-(2,4,5-trifluorophenyl)-1H-pyrrolo[3,2-h]quinoline-3-sulfonamide] | 3.16 to 31.6 nM | 3.16 to 31.6 nM
19 | O=S(=O)(Nc1nc(F)c(Cl)cc1F)c1c[nH]c2c1ccc1cccnc12 [Compound I-316, N-(5-chloro-3,6-difluoropyridin-2-yl)-1H-pyrrolo[3,2-h]quinoline-3-sulfonamide] | 3.16 to 31.6 nM | 3.16 to 31.6 nM
20 | N#CCc1ccc(NS(=O)(=O)c2c[nH]c3cc(Cl)ccc23)c(F)c1 [Compound I-206, 6-chloro-N-[4-(cyanomethyl)-2-fluorophenyl]-1H-indole-3-sulfonamide] | 3.16 to 31.6 nM | < 3.16 nM
21 | COCCCc1cc(F)c(NS(=O)(=O)c2c[nH]c3cc(Cl)ccc23)nc1F [Compound I-253, 6-chloro-N-[3,6-difluoro-5-(3-methoxypropyl)pyridin-2-yl]-1H-indole-3-sulfonamide] | < 3.16 nM | < 3.16 nM
22 | O=S(=O)(Nc1cccc2nonc12)c1c[nH]c2cc(Cl)ccc12 [Compound I-216, N-(2,1,3-benzoxadiazol-4-yl)-6-chloro-1H-indole-3-sulfonamide] | 3.16 to 31.6 nM | 3.16 to 31.6 nM
23 | O=S(=O)(Nc1ncc(Cl)cc1F)c1c[nH]c2c1ccc1ccccc12 [Compound I-191, N-(5-chloro-3-fluoropyridin-2-yl)-1H-benzo[g]indole-3-sulfonamide] | 3.16 to 31.6 nM | < 3.16 nM
24 | O=S(=O)(Nc1ccc(F)cc1F)c1c[nH]c2nc(Br)ccc12 [Compound I-91, 6-bromo-N-(2,4-difluorophenyl)-1H-pyrrolo[2,3-b]pyridine-3-sulfonamide] | > 31.6 nM | > 31.6 nM
25 | O=S(=O)(Nc1cc2nsnc2cc1F)c1c[nH]c2cc(Br)ccc12 [Compound I-193, 6-bromo-N-(6-fluoro-2,1,3-benzothiadiazol-5-yl)-1H-indole-3-sulfonamide] | < 3.16 nM | < 3.16 nM
26 | O=S(=O)(Nc1ccc(Br)c(Cl)n1)c1c[nH]c2cc(Cl)ccc12 [Compound I-275, N-(5-bromo-6-chloropyridin-2-yl)-6-chloro-1H-indole-3-sulfonamide] | 3.16 to 31.6 nM | 3.16 to 31.6 nM
27 | COc1cc(Br)cnc1NS(=O)(=O)c1c[nH]c2cc(Cl)ccc12 [Compound I-129, N-(5-bromo-3-methoxypyridin-2-yl)-6-chloro-1H-indole-3-sulfonamide] | 3.16 to 31.6 nM | 3.16 to 31.6 nM
28 | C#Cc1ccc(NS(=O)(=O)c2c[nH]c3nc(OC)ccc23)c(F)c1 [Compound I-283, N-(4-ethynyl-2-fluorophenyl)-6-methoxy-1H-pyrrolo[2,3-b]pyridine-3-sulfonamide] | 3.16 to 31.6 nM | 3.16 to 31.6 nM
29 | N#Cc1ccc(NS(=O)(=O)c2csc3cc(Cl)ccc23)cc1 [Compound I-311, 6-chloro-N-(4-cyanophenyl)-1-benzothiophene-3-sulfonamide] | 3.16 to 31.6 nM | 3.16 to 31.6 nM
